Results on ten compounds are retold here after PubChem BioAssay AID248 (DTP/NCI, 2004).

SMILES strings stand for the structures. Values joined by “and” are separate entries in the source; they are usually repeats but may differ in a detail not shown here. Identical values can stand only once. Inconclusive results and toxic doses are left out.

The subject of the experiment is L1210 leukemia ip in BDF1 mice, survival T/C. Briefly: NCI In Vivo Anticancer Drug Screen. Data for tumor model L1210 Leukemia (intraperitoneal) in B6D2F1 (BDF1) mice. The conditions noted are these: endpoint: mean survival time, higher = longer survival. The gist of the method:
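Ratio derived from survival: compound-dosed mice over vehicle-dosed mice, all bearing a transplantable tumor.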

[1] abbreviates: dose: 50.0 mg/kg/injection, schedule: Q01DX009 (ip), vehicle: saline.
[2] abbreviates: dose: 100.0 mg/kg/injection, schedule: Q04DX003 (ip), vehicle: saline with Tween-80.
The mark [3] stands for this setting: dose: 200.0 mg/kg/injection, schedule: Q04DX003 (ip), vehicle: saline with Tween-80.
The mark [4] stands for this setting: dose: 100.0 mg/kg/injection, schedule: Q01DX001 (ip), vehicle: carboxymethylcellulose (CMC).
The mark [5] stands for this setting: dose: 200.0 mg/kg/injection, schedule: Q01DX001 (ip), vehicle: carboxymethylcellulose (CMC).
[6] abbreviates: dose: 400.0 mg/kg/injection, schedule: Q01DX001 (ip), vehicle: carboxymethylcellulose (CMC).

Turning to `CC(=O)C(Cl)C(O)(C(F)(F)F)C(F)(F)F` (stereo not drawn), the T/C was 96 % of control (dose: 12.5 mg/kg/injection, schedule: Q01DX009 (ip), vehicle: saline); 100 % of control (dose: 25.0 mg/kg/injection, schedule: Q01DX009 (ip), vehicle: saline); 110 % of control under setting [1]; 95 % of control under setting [2]; 104 % of control under setting [3].

Take `CCN=C(NCC)Nc1ccc(NC(=O)c2ccc(C(=O)Nc3ccc(NC(=NCC)NCC)cc3)cc2)cc1`: the T/C runs as follows: (dose: 1.87 mg/kg/injection, schedule: Q01DX Z (ip), vehicle: water) 93 % of control; (dose: 3.75 mg/kg/injection, schedule: Q01DX Z (ip), vehicle: water) 97 % of control; (dose: 7.5 mg/kg/injection, schedule: Q01DX Z (ip), vehicle: water) 109 % of control; (dose: 8.0 mg/kg/injection, schedule: Q01DX009 (ip), vehicle: carboxymethylcellulose (CMC)) 156 % of control; (dose: 16.0 mg/kg/injection, schedule: Q01DX009 (ip), vehicle: carboxymethylcellulose (CMC)) 167 % of control; (dose: 20.0 mg/kg/injection, schedule: Q01DX001 (ip), vehicle: carboxymethylcellulose (CMC)) 103 % of control. The T/C runs as follows: (dose: 21.0 mg/kg/injection, schedule: Q01DX001 (ip), vehicle: other) 103 % of control; (dose: 31.0 mg/kg/injection, schedule: Q01DX001 (ip), vehicle: other) 105 % of control; (dose: 33.0 mg/kg/injection, schedule: Q01DX009 (ip), vehicle: other) 190 % of control; (dose: 40.0 mg/kg/injection, schedule: Q01DX001 (ip), vehicle: carboxymethylcellulose (CMC)) 104 % of control; (dose: 47.0 mg/kg/injection, schedule: Q01DX001 (ip), vehicle: other) 116 % of control; (dose: 50.0 mg/kg/injection, schedule: Q01DX009 (ip), vehicle: other) 181 % of control. The T/C was 114 % of control (dose: 70.0 mg/kg/injection, schedule: Q01DX001 (ip), vehicle: other); 118 % of control (dose: 75.0 mg/kg/injection, schedule: Q01DX001 (ip), vehicle: other); 107 % of control (dose: 75.0 mg/kg/injection, schedule: Q01DX009 (ip), vehicle: other); 119 % of control (dose: 80.0 mg/kg/injection, schedule: Q01DX001 (ip), vehicle: carboxymethylcellulose (CMC)); 121 % of control under setting [4]; 114 % of control (dose: 106.0 mg/kg/injection, schedule: Q01DX001 (ip), vehicle: other). Moreover, the T/C (dose: 150.0 mg/kg/injection, schedule: Q01DX001 (ip), vehicle: other) is 153 % of control; the T/C (dose: 160.0 mg/kg/injection, schedule: Q01DX001 (ip), vehicle: carboxymethylcellulose (CMC)) is 167 % of control and 196 % of control; the T/C (dose: 160.0 mg/kg/injection, schedule: Q01DX001 (ip), vehicle: other) is 112 % of control; the T/C (dose: 240.0 mg/kg/injection, schedule: Q01DX001 (ip), vehicle: other) was 227 % of control; the T/C (dose: 300.0 mg/kg/injection, schedule: Q01DX001 (ip), vehicle: other) was 212 % of control.

On to `COc1cc(C2c3cc4c(cc3C(O)C(CO)C2CO)OCO4)cc(OC)c1OC` (stereo not drawn), for which the T/C by setting is: (dose: 8.75 mg/kg/injection, schedule: Q01DX Z (ip), vehicle: carboxymethylcellulose (CMC)) 100 % of control; (dose: 11.5 mg/kg/injection, schedule: Q01DX Z (ip), vehicle: carboxymethylcellulose (CMC)) 108 % of control; (dose: 17.0 mg/kg/injection, schedule: Q01DX Z (ip), vehicle: carboxymethylcellulose (CMC)) 113 % of control; (dose: 17.5 mg/kg/injection, schedule: Q01DX Z (ip), vehicle: carboxymethylcellulose (CMC)) 114 % of control; (dose: 26.0 mg/kg/injection, schedule: Q01DX Z (ip), vehicle: carboxymethylcellulose (CMC)) 120 % of control; (dose: 35.0 mg/kg/injection, schedule: Q01DX Z (ip), vehicle: carboxymethylcellulose (CMC)) 106 % of control. For the same compound, the T/C was 98 % of control (dose: 37.5 mg/kg/injection, schedule: Q04DX003 (ip), vehicle: saline); 95 % of control (dose: 50.0 mg/kg/injection, schedule: Q01DX001 (ip), vehicle: carboxymethylcellulose (CMC)); 98 % of control (dose: 70.0 mg/kg/injection, schedule: Q01DX Z (ip), vehicle: carboxymethylcellulose (CMC)); 118 % of control (dose: 75.0 mg/kg/injection, schedule: Q04DX003 (ip), vehicle: saline); 104 % of control under setting [4]; 100 % of control and 121 % of control (dose: 140.0 mg/kg/injection, schedule: Q01DX Z (ip), vehicle: carboxymethylcellulose (CMC)). Further, the T/C is 110 % of control (dose: 150.0 mg/kg/injection, schedule: Q04DX003 (ip), vehicle: saline); 101 % of control under setting [5]; 105 % of control (dose: 280.0 mg/kg/injection, schedule: Q01DX Z (ip), vehicle: carboxymethylcellulose (CMC)); 98 % of control under setting [6].

Consider `CCCNC(=O)NS(=O)(=O)c1ccc(Cl)cc1`, for which the T/C runs as follows: (dose: 100.0 mg/kg/injection, schedule: Q04DX003 (ip), vehicle: Klucel (hydroxypropylcellulose) (HPC)) 93 % of control; (dose: 200.0 mg/kg/injection, schedule: Q04DX003 (ip), vehicle: Klucel (hydroxypropylcellulose) (HPC)) 94 % of control; (dose: 400.0 mg/kg/injection, schedule: Q04DX003 (ip), vehicle: Klucel (hydroxypropylcellulose) (HPC)) 104 % of control.

`CCOC(=O)Cc1cn(C)c2ccccc12`: the T/C reads like this: under setting [2], 93 % of control; under setting [3], 91 % of control; (dose: 400.0 mg/kg/injection, schedule: Q04DX003 (ip), vehicle: saline with Tween-80) 96 % of control.

`CCCCC1C(=O)N2c3ccccc3-c3ccccc3N2C1=O`: the T/C reads like this: (dose: 75.0 mg/kg/injection, schedule: Q01DX001 (ip), vehicle: saline) 99 % of control; (dose: 150.0 mg/kg/injection, schedule: Q01DX001 (ip), vehicle: saline) 96 % of control; (dose: 300.0 mg/kg/injection, schedule: Q01DX001 (ip), vehicle: saline) 101 % of control.

Turning to `COc1ccccc1CN1CCCN(Cc2ccccc2OC)C1c1cc(OC)c(O)c(OC)c1`, the T/C runs as follows: under setting [4], 98 % of control; under setting [5], 91 % of control; under setting [6], 96 % of control.

With `CC1(C)N=C(N)N=C(N)N1c1cccc(OCCOc2ccc(NC(=O)CBr)cc2)c1`, the T/C under setting [1] was 124 % of control; the T/C (dose: 100.0 mg/kg/injection, schedule: Q01DX001 (ip), vehicle: saline) is 94 % of control; the T/C (dose: 100.0 mg/kg/injection, schedule: Q01DX009 (ip), vehicle: other) is 172 % of control; the T/C (dose: 150.0 mg/kg/injection, schedule: Q01DX009 (ip), vehicle: other) is 154 % of control; the T/C (dose: 200.0 mg/kg/injection, schedule: Q01DX001 (ip), vehicle: saline) is 109 % of control; the T/C (dose: 200.0 mg/kg/injection, schedule: Q01DX009 (ip), vehicle: other) is 100 % of control. Besides, the T/C is 97 % of control (dose: 200.0 mg/kg/injection, schedule: Q01DX009 (ip), vehicle: saline) and 112 % of control (dose: 400.0 mg/kg/injection, schedule: Q01DX001 (ip), vehicle: saline).

On to `Nc1ncc2c(n1)SCC2`, for which the T/C (dose: 5.0 mg/kg/injection, schedule: Q01DX001 (ip), vehicle: saline) is 104 % of control; the T/C (dose: 10.0 mg/kg/injection, schedule: Q01DX001 (ip), vehicle: saline) is 104 % of control; the T/C (dose: 20.0 mg/kg/injection, schedule: Q01DX001 (ip), vehicle: saline) is 102 % of control; the T/C (dose: 40.0 mg/kg/injection, schedule: Q01DX001 (ip), vehicle: saline) is 102 % of control; the T/C (dose: 80.0 mg/kg/injection, schedule: Q01DX001 (ip), vehicle: saline) was 116 % of control.

For the compound `OCC1OCOC2C(CO)OCOC12` (stereo not drawn), the T/C runs as follows: (dose: 25.6 mg/kg/injection, schedule: Q04DX002 (ip), vehicle: saline with Tween-80) 104 % of control; (dose: 64.0 mg/kg/injection, schedule: Q04DX002 (ip), vehicle: saline with Tween-80) 101 % of control; (dose: 160.0 mg/kg/injection, schedule: Q04DX002 (ip), vehicle: saline with Tween-80) 101 % of control; (dose: 400.0 mg/kg/injection, schedule: Q04DX002 (ip), vehicle: saline with Tween-80) 96 % of control.
